{"source": "patent US11053219B2", "about": "“Substituted pyridines as TYK2 inhibitors” (FronThera U.S. Pharmaceuticals LLC, priority 2018, dated 2021)", "key": {"[1]": {"biological_target": "TYK2 (JH2 domain) (Homo sapiens (Human), UniProt P29597)", "sequence (P29597 589-875)": "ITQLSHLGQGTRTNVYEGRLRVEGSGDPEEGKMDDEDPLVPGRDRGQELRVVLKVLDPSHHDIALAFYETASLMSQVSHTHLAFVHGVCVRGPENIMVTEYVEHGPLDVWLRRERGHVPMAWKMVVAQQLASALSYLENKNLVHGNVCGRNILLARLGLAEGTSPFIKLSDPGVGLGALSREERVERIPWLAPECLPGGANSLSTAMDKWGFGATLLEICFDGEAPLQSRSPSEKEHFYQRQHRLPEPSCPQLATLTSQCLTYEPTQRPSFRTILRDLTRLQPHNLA", "test": "TYK2 JH2 domain binding assay (DiscoverX KINOMEscan)", "details": "11-point 3-fold dilution, duplicate"}, "[2]": {"system": "INFα induced pSTAT3 in human PBMC", "test": "INFα induced pSTAT3 in human PBMC", "assay_type": "cell-based", "details": "human PBMC, INFα 5000 units/ml; read-out: p-STAT3 IC50", "experimental": "Fresh Human PBMCs were resuspended in RPMI 1640 medium with 10% FBS. Cells were seeded in a round bottom 96-well plate at the concentration of 200,000 cells/well. A 10-point dilution series of test compound (top dose 10 uM, 1:5 dilution) was added to the well using the liquid dispenser (Tecan D300e) and incubated for 1 hour at 37 C. Then human INFα recombinant protein (R&D Systems) was added to the well at the final concentration of 5000 units/ml and incubated for 15 minutes at 37 C. Cell lysates were prepared and analyzed by Phospho STAT3 (Tyr705) cellular kit (Cisbio) or Phospho STAT5 (Tyr693) Kit (Meso Scale Discovery) following manufacturer's protocol.\nFor calculation of the inhibition rate, the relative pSTAT signal of each well=pSTAT signal of each well−the average pSTAT signal of baseline. The inhibition %=(the average pSTAT signal of INFα treatment wells−the relative of pSTAT signal in each compound containing well)/the average pSTAT signal of INFα treatment wells*100%\nThe curve was plotted as the inhibition % (y-axis) vs. compounds concentration (x-axis) and was fitted with log(inhibitor) vs. normalized response—Variable slope by GraphPad Prism7.0."}, "[3]": {"system": "IL12-induced p-STAT4 in human PBMC", "test": "IL-12 induced pSTAT4 in human PBMC", "assay_type": "cell-based", "details": "human PBMC, IL-12 10 ng/ml; read-out: p-STAT4 IC50", "procedure": "Cells were seeded in a round bottom 96-well plate at the concentration of 200,000 cells/well. A 10-point dilution series of test compound (top dose 10 uM, 1:5 dilution) was added to the well using the liquid dispenser (Tecan D300e) and incubated for 1 hour at 37 C. Then human IL-12 recombinant protein (R&D Systems) was added to the well at the final concentration of 10 ng/ml and incubated for 15 minutes at 37 C. Cell lysates were prepared and analyzed by Phospho STAT4 (Tyr693) Kit (Meso Scale Discovery) following manufacturer's protocol.\nFor calculation of the inhibition rate, the relative pSTAT4 signal of each well=pSTAT4 signal of each well−the average pSTAT4 signal of baseline. The inhibition %=(the average pSTAT4 signal of IL-12 treatment wells−the relative of pSTAT4 signal in each compound containing well)/the average pSTAT4 signal of IL-12 treatment wells*100%"}}}
{"compound": "COc1c(Nc2cc(NC(=O)C3CC3)nc3c2C(=O)NC3)cccc1-c1ncn(C)n1", "note": "[Example 43]", "values": [{"measurement": "Kd", "setting": "[1]", "result": "5 to 10", "unit": "nM"}, {"measurement": "IC50", "setting": "[2]", "result": "1000 to 10000", "unit": "nM"}, {"measurement": "IC50", "setting": "[3]", "result": "> 10000", "unit": "nM"}]}
{"compound": "COc1c(Nc2cc(NC(=O)C3CC3)nnc2C(=O)C(F)F)cccc1-c1ncn(C)n1", "note": "[Example 44]", "values": [{"measurement": "Kd", "setting": "[1]", "result": "1 to 5", "unit": "nM"}, {"measurement": "IC50", "setting": "[2]", "result": "1000 to 10000", "unit": "nM"}, {"measurement": "IC50", "setting": "[3]", "result": "100 to 1000", "unit": "nM"}]}
{"compound": "COc1c(Nc2cc(NC(=O)C3CC3)nc3cn(C)nc23)cccc1-c1ncn(C)n1", "note": "[Example 55]", "values": [{"measurement": "Kd", "setting": "[1]", "result": "1 to 5", "unit": "nM"}, {"measurement": "IC50", "setting": "[2]", "result": "100 to 1000", "unit": "nM"}, {"measurement": "IC50", "setting": "[3]", "result": "100 to 1000", "unit": "nM"}]}
{"compound": "[2H]C([2H])([2H])NC(=O)c1nnc(N2CCCC2=O)cc1Nc1cccc(-c2ncn(C)n2)c1OC", "note": "[Example 56]", "values": [{"measurement": "Kd", "setting": "[1]", "result": "1 to 5", "unit": "nM"}, {"measurement": "IC50", "setting": "[2]", "result": "1000 to 10000", "unit": "nM"}, {"measurement": "IC50", "setting": "[3]", "result": "100 to 1000", "unit": "nM"}]}
{"compound": "[2H]C([2H])([2H])NC(=O)c1nnc(N2CC(F)(F)C2=O)cc1Nc1cccc(-c2ncn(C)n2)c1OC", "note": "[Example 57]", "values": [{"measurement": "Kd", "setting": "[1]", "result": "1 to 5", "unit": "nM"}, {"measurement": "IC50", "setting": "[2]", "result": "1000 to 10000", "unit": "nM"}, {"measurement": "IC50", "setting": "[3]", "result": "1000 to 10000", "unit": "nM"}]}
{"compound": "CNC(=O)c1nnc(N2CCCC2=O)cc1Nc1cccc(-c2ncn(C)n2)c1OC", "note": "[Example 59]", "values": [{"measurement": "Kd", "setting": "[1]", "result": "1 to 5", "unit": "nM"}, {"measurement": "IC50", "setting": "[2]", "result": "1000 to 10000", "unit": "nM"}, {"measurement": "IC50", "setting": "[3]", "result": "1000 to 10000", "unit": "nM"}]}
{"compound": "[2H]C([2H])([2H])NC(=O)c1nnc(N2CCOC2=O)cc1Nc1cccc(-c2ncn(C)n2)c1OC", "note": "[Example 60]", "values": [{"measurement": "Kd", "setting": "[1]", "result": "1 to 5", "unit": "nM"}, {"measurement": "IC50", "setting": "[2]", "result": "> 10000", "unit": "nM"}, {"measurement": "IC50", "setting": "[3]", "result": "> 10000", "unit": "nM"}]}
{"compound": "[2H]C([2H])([2H])NC(=O)c1nnc(N2CCC(C#N)(C3CC3)C2=O)cc1Nc1cccc(-c2ncn(C)n2)c1OC", "note": "(stereo not drawn) [Example 61]", "values": [{"measurement": "Kd", "setting": "[1]", "result": "1 to 5", "unit": "nM"}, {"measurement": "IC50", "setting": "[2]", "result": "1000 to 10000", "unit": "nM"}, {"measurement": "IC50", "setting": "[3]", "result": "1000 to 10000", "unit": "nM"}]}
{"compound": "[2H]C([2H])([2H])NC(=O)c1nnc(N2CC(C)(C)C2)cc1Nc1cccc(-c2ncn(C)n2)c1OC", "note": "[Example 62]", "values": [{"measurement": "Kd", "setting": "[1]", "result": "5 to 10", "unit": "nM"}, {"measurement": "IC50", "setting": "[2]", "result": "1000 to 10000", "unit": "nM"}, {"measurement": "IC50", "setting": "[3]", "result": "1000 to 10000", "unit": "nM"}]}
{"compound": "[2H]C([2H])([2H])NC(=O)c1nnc(-n2ccn(C)c2=O)cc1Nc1cccc(-c2ncn(C)n2)c1OC", "note": "[Example 63]", "values": [{"measurement": "Kd", "setting": "[1]", "result": "≤ 1", "unit": "nM"}, {"measurement": "IC50", "setting": "[2]", "result": "100 to 1000", "unit": "nM"}, {"measurement": "IC50", "setting": "[3]", "result": "100 to 1000", "unit": "nM"}]}
{"compound": "[2H]C([2H])([2H])NC(=O)c1nnc(N2CCC(C)C2=O)cc1Nc1cccc(-c2ncn(C)n2)c1OC", "note": "(stereo not drawn) [Example 64]", "values": [{"measurement": "Kd", "setting": "[1]", "result": "≤ 1", "unit": "nM"}, {"measurement": "IC50", "setting": "[2]", "result": "100 to 1000", "unit": "nM"}, {"measurement": "IC50", "setting": "[3]", "result": "100 to 1000", "unit": "nM"}]}
{"compound": "[2H]C([2H])([2H])NC(=O)c1nnc(N2CCN(CC(F)(F)F)C2=O)cc1Nc1cccc(-c2ncn(C)n2)c1OC", "note": "[Example 67]", "values": [{"measurement": "Kd", "setting": "[1]", "result": "≤ 1", "unit": "nM"}, {"measurement": "IC50", "setting": "[2]", "result": "100 to 1000", "unit": "nM"}, {"measurement": "IC50", "setting": "[3]", "result": "< 100", "unit": "nM"}]}
{"compound": "[2H]C([2H])([2H])NC(=O)c1nnc(N2CCN(CC3CC3)C2=O)cc1Nc1cccc(-c2ncn(C)n2)c1OC", "note": "[Example 68]", "values": [{"measurement": "Kd", "setting": "[1]", "result": "≤ 1", "unit": "nM"}, {"measurement": "IC50", "setting": "[2]", "result": "< 100", "unit": "nM"}, {"measurement": "IC50", "setting": "[3]", "result": "< 100", "unit": "nM"}]}
{"compound": "[2H]C([2H])([2H])NC(=O)c1nnc(N2CCN(CC#N)C2=O)cc1Nc1cccc(-c2ncn(C)n2)c1OC", "note": "[Example 69]", "values": [{"measurement": "Kd", "setting": "[1]", "result": "≤ 1", "unit": "nM"}, {"measurement": "IC50", "setting": "[2]", "result": "< 100", "unit": "nM"}, {"measurement": "IC50", "setting": "[3]", "result": "< 100", "unit": "nM"}]}
{"compound": "[2H]C([2H])([2H])NC(=O)c1nnc(N2CCN(CC3CCOC3)C2=O)cc1Nc1cccc(-c2ncn(C)n2)c1OC", "note": "(stereo not drawn) [Example 71]", "values": [{"measurement": "Kd", "setting": "[1]", "result": "≤ 1", "unit": "nM"}, {"measurement": "IC50", "setting": "[2]", "result": "100 to 1000", "unit": "nM"}, {"measurement": "IC50", "setting": "[3]", "result": "100 to 1000", "unit": "nM"}]}
{"compound": "[2H]C([2H])([2H])NC(=O)c1nnc(N2CCN(CC3(C)COC3)C2=O)cc1Nc1cccc(-c2ncn(C)n2)c1OC", "note": "[Example 72]", "values": [{"measurement": "Kd", "setting": "[1]", "result": "≤ 1", "unit": "nM"}, {"measurement": "IC50", "setting": "[2]", "result": "100 to 1000", "unit": "nM"}, {"measurement": "IC50", "setting": "[3]", "result": "< 100", "unit": "nM"}]}
{"compound": "[2H]C([2H])([2H])NC(=O)c1nnc(N2CCN(CC3CCCO3)C2=O)cc1Nc1cccc(-c2ncn(C)n2)c1OC", "note": "(stereo not drawn) [Example 74]", "values": [{"measurement": "Kd", "setting": "[1]", "result": "≤ 1", "unit": "nM"}, {"measurement": "IC50", "setting": "[2]", "result": "< 100", "unit": "nM"}, {"measurement": "IC50", "setting": "[3]", "result": "< 100", "unit": "nM"}]}
{"compound": "[2H]C([2H])([2H])NC(=O)c1nnc(N2CCN(c3ccccc3)C2=O)cc1Nc1cccc(-c2ncn(C)n2)c1OC", "note": "[Example 77]", "values": [{"measurement": "Kd", "setting": "[1]", "result": "1 to 5", "unit": "nM"}, {"measurement": "IC50", "setting": "[2]", "result": "1000 to 10000", "unit": "nM"}, {"measurement": "IC50", "setting": "[3]", "result": "100 to 1000", "unit": "nM"}]}
